Measurements published in patent US7223745B2, “Proteasome inhibitors and methods of using the same” (Cephalon, Inc., priority 2003, dated 2007).

How the values were obtained:
[1] = target: T1, 20S Human Erythrocyte Proteasome (HEP) (Homo sapiens, UniProt P28074); assay: Chymotrypsin-like activity of 20S Human Erythrocyte Proteasome (HEP), IC50 determination; type: biochemical; conditions: Suc-LLVY-AMC substrate, 15 minutes preincubation at 37° C.
T1 construct: 20S Human Erythrocyte Proteasome (HEP), purchased from Immatics Biotechnologies Inc; purchased Immatics Biotechnologies Inc., Tubingen, Germany; host or cells: human erythrocytes (natural source)
Description: Proteasome chymotrypsin-like activity of compounds of the invention was assayed according to the following procedure.
In 96-well microtiter plates, 20S Human Erythrocyte Proteasome (HEP), purchased from Immatics Biotechnologies Inc., Tubingen, Germany was plated at 0.2 μg/mL (about 0.6 nM catalytic sites) in 0.04% SDS 20 mM Tris buffer. A fluorimetric substrate Suc-LLVY-AMC (succinyl-Leu-Leu-Val-Tyr-7-amido-4-methylcoumarin), purchased from Sigma Inc., St. Louis, Mo., USA was added to a final concentration of 100 μM from a stock solution of 10 mM in dimethylsulfoxide. Reaction volumes were 100 μl per well. After incubation for various periods of time at 37° C., the concentration of free AMC (aminomethylcoumarin) was determined on a Perkin Elmer HTS 7000 Plus microplate reader, excitation 370 nm and emission 465 nm. Proteasome activity was determined under conditions in which substrate hydrolysis increased linearly with time and the change in fluorescence signal was proportional to the concentration of free AMC.
IC50 values are typically defined as the concentration of a compound necessary to produce 50% inhibition of the enzyme's activity. IC50 values are useful indicators of the activity of a compound for its designated use. […] In some embodiments, the inhibitors show some specificity for HEP and the ratio of the IC50 for inhibition of bovine α-chymotrypsin versus the IC50 for inhibition of HEP, i.e, IC50 (α-Chymotripsin)/IC50 (HEP), is greater then about 100.
(§1) Inhibition of the chymotrypsin-like activity of HEP and of bovine α-chymotrypsin was determined by incubating the enzyme with various concentrations of putative inhibitors for 15 minutes at 37° C. (or room temperature for α-chymotrypsin) prior to the addition of substrate. Each experimental condition was evaluated in triplicate, and replicate experiments were performed for the inhibitors described herein.

[2] = tested on: proteasome in Molt-4 cells; assay: Cellular assay for chymotrypsin-like activity of proteasome in Molt-4 cell line, EC50 determination; type: cell-based, human; conditions: MeOSuc-FLF-AFC substrate, 15 minutes preincubation at 37° C., read-out: MOLT4 (EC50)
Description: The chymotrypsin-like activity of proteasome in Molt-4 cells (human leukemia) was assayed according to the following procedure. A brief description of the method was published previously (Harding et al., J. Immunol., 1995, 155, 1767).
Molt-4 cells were washed and resuspended in HEPES-buffered Saline (5.4 mM KCl, 120 mM NaCl, 25 mM Glucose, 1.5 mM MgSO4, 1 mM Na pyruvate, 20 mM Hepes) and plated in 96-well microtiter white plates to a final concentration of 6×10^6 cells/mL. Then various 5× proteasome inhibitor concentrations (or diluted DMSO for controls), prepared from 250×DMSO solutions by diluting 50-fold using HEPES-buffered saline, were added to the plate to a final 1× concentration. After 15 minutes incubation at 37° C., a fluorimetric cell permeable substrate (MeOSuc-FLF-AFC) (methoxysuccinyl-Phe-Leu-Phe-7-amido-4-trifluoromethylcoumarin) purchased from Enzyme Systems Products, catalogue number AFC-88, was added to each well at a final concentration of 25 μM from a stock solution of 20 mM in DMSO. Reaction volumes were 100 μl per well.
The concentration of free AFC was monitored every 1.5 min for 30 min ([…]) on a Polastar Optima, BMG Labtechnologies microplate reader, using an excitation wavelength of 390 nm and emission wavelength of 520 nm. Proteasome activity was determined under conditions in which substrate hydrolysis increased linearly with time and the change in fluorescent signal was proportional to the concentration of free AFC.
EC50 values are typically defined as the concentration of a compound required to produce an inhibition of the enzyme's activity halfway between the minimum and the maximum response (0% and 85–90% respectively for this assay). EC50 values are useful indicators of the activity of a compound for its designated use.
as §1, with “of” for “of the”, “proteasome in Molt-4 cells” for “HEP and of bovine α-chymotrypsin”, “cells” for “the enzyme”, “C.” for “C. (or room temperature for α-chymotrypsin)”

SMILES	IC50 [1]	EC50 [2]
CC(C)C[C@H](NC(=O)[C@H](CCCNC(=N)N[N+](=O)[O-])NC(=O)CCCCCCCCCN1C(=O)c2ccccc2C1=O)B1O[C@@H]2C[C@@H]3C[C@@H](C3(C)C)[C@]2(C)O1 [Example 10, 10-(1,3-Dioxo-1,3-dihydro-isoindol-2-yl)-decanamide, N-[(1S)-1-[[[(1R)-1-[(3aS,4S,6S,7aR)-hexahydro-3a,5,5-trimethyl-4,6-methano-1,3,2-benzodioxaborol-2-yl]-3-methylbutyl]amino]carbonyl]-4-[[imino(nitroamino)methyl]amino]butyl]-;]	< 10 nM	< 200 nM
CC(C)C[C@H](NC(=O)[C@H](CCCNC(=N)N[N+](=O)[O-])NC(=O)CCCCCCCCCCCNC(=O)OC(C)(C)C)B1O[C@@H]2C[C@@H]3C[C@@H](C3(C)C)[C@]2(C)O1 [Example 11, 12-[(1,1-dimethylethoxy)carbonylamino]dodecanamide, N-[(1S)-1-[[[(1R)-1-[(3aS,4S,6S,7aR)-hexahydro-3a,5,5-trimethyl-4,6-methano-1,3,2-benzodioxaborol-2-yl]-3-methylbutyl]amino]earbonyl]-4-[[imino(nitroamino)methyl]amino]butyl]-]	< 10 nM	< 200 nM
COC(=O)CCCCCCC(=O)N[C@@H](CCCNC(=N)N[N+](=O)[O-])C(=O)N[C@@H](CC(C)C)B1O[C@@H]2C[C@@H]3C[C@@H](C3(C)C)[C@]2(C)O1 [Example 12]	< 10 nM	< 2000 nM
CC(C)C[C@H](NC(=O)[C@H](CCCNC(=N)N[N+](=O)[O-])NC(=O)CCCCCCCCCCC#N)B1O[C@@H]2C[C@@H]3C[C@@H](C3(C)C)[C@]2(C)O1 [Example 13, 11-Cyanoundecanamide, N-[(1S)-1-[[[(1R)-1-[(3aS,4S,6S,7aR)-hexahydro-3a,5,5-trimethyl-4,6-methano-1,3,2-benzodioxaborol-2-yl]-3-methylbutyl]amino]carbonyl]-4-[[imino(nitroamino)methyl]amino]butyl]-.]	< 10 nM	< 200 nM
CC(C)C[C@H](NC(=O)[C@H](CCCNC(=N)N[N+](=O)[O-])NC(=O)CCCCCCCCC#N)B1O[C@@H]2C[C@@H]3C[C@@H](C3(C)C)[C@]2(C)O1 [Example 14, 9–Cyanononamide, N-[(1S)-1-[[[(1R)-1-[(3aS,4S,6S,7aR)-hexahydro-3a,5,5-trimethyl-4,6-methano-1,3,2-benzodioxaborol-2-yl]-3-methylbutyl]amino]carbonyl]-4-[[imino(nitroamino)methyl]amino]butyl]]	< 10 nM	< 200 nM
CC(=O)NCCCCCC(=O)N[C@@H](CCCNC(=N)N[N+](=O)[O-])C(=O)N[C@@H](CC(C)C)B1O[C@@H]2C[C@@H]3C[C@@H](C3(C)C)[C@]2(C)O1 [Example 15, 6-(Acetylamino)hexanamide, N-[(1S)-1-[[[(1R)-1-[(3aS,4S,6S,7aR)-hexahydro-3a,5,5-trimethyl-4,6-methano-1,3,2-benzodioxaborol-2-yl]-3-methylbutyl]amino]carbonyl]-4-[[imino(nitroamino)methyl]amino]butyl]]	< 100 nM	–
CC(C)C[C@H](NC(=O)[C@H](CCCNC(=N)N[N+](=O)[O-])NC(=O)CCCCCCCCCCCN1C(=O)c2ccccc2C1=O)B1O[C@@H]2C[C@@H]3C[C@@H](C3(C)C)[C@]2(C)O1 [Example 16]	< 10 nM	< 200 nM
CCS(=O)(=O)NCCCCCC(=O)N[C@@H](CCCNC(=N)N[N+](=O)[O-])C(=O)N[C@@H](CC(C)C)B1O[C@@H]2C[C@@H]3C[C@@H](C3(C)C)[C@]2(C)O1 [Example 17, 6-(Ethanesulfonylamino)hexanamide, N-[(1S)-1-[[[(1R)-1-[(3aS,4S,6S,7aR)-hexahydro-3a,5,5-trimethyl-4,6-methano-1,3,2-benzodioxaborol-2-yl]-3-methylbutyl]amino]carbonyl]-4-[[imino(nitroamino)methyl]amino]butyl]]	< 100 nM	> 10000 nM
CC(C)C[C@H](NC(=O)[C@H](CCCNC(=N)N[N+](=O)[O-])NC(=O)CCCCCNS(=O)(=O)c1ccccc1)B1O[C@@H]2C[C@@H]3C[C@@H](C3(C)C)[C@]2(C)O1 [Example 18, 6-Benzenesulfonylaminohexanamide, N-[(1S)-1-[[[(1R)-1-[(3aS,4S,6S,7aR)-hexahydro-3a,5,5-trimethyl-4,6-methano-1,3,2-benzodioxaborol-2-yl]-3-methylbutyl]amino]carbonyl]-4-[[imino(nitroamino)methyl]amino]butyl]]	< 10 nM	< 2000 nM
CCS(=O)(=O)NCCCCCCCC(=O)N[C@@H](CCCNC(=N)N[N+](=O)[O-])C(=O)N[C@@H](CC(C)C)B1O[C@@H]2C[C@@H]3C[C@@H](C3(C)C)[C@]2(C)O1 [Example 19]	< 10 nM	< 200 nM
CC(C)C[C@H](NC(=O)[C@H](CCCNC(=N)N[N+](=O)[O-])NC(=O)CCCCCCCCCCC#N)B(O)O [Example 20, Boronic acid, [(1R)-1-[[(2S)-5-[[imino(nitroamino)methyl]amino]-2-[(11-Cianoundecanoyl)amino]-1-oxopentyl]amino]-3-methylbutyl]]	< 10 nM	< 10000 nM
CC(C)C[C@H](NC(=O)[C@H](CCCNC(=N)N[N+](=O)[O-])NC(=O)CCCCCCCCC#N)B(O)O [Example 21, Boronic acid, [(1R)-1-[[(2S)-5-[[imino(nitroamino)methyl]amino]-2-[(9-Cyanononanoyl)amino]-1-oxopentyl]amino]-3-methylbutyl]]	< 10 nM	> 10000 nM
COC(=O)CCCCCCC(=O)N[C@@H](CCCNC(=N)N[N+](=O)[O-])C(=O)N[C@@H](CC(C)C)B(O)O [Example 22, Boronic acid, [(1R)-1-[[(2S)-5-[[imino(nitroamino)methyl]amino]-2-[[7-(methoxycarbonyl)heptanoyl]amino]-1-oxopentyl]amino]-3-methylbutyl]]	< 10 nM	> 10000 nM
CC(C)C[C@H](NC(=O)[C@H](CCCNC(=N)N[N+](=O)[O-])NC(=O)CCCCCCCCCN1C(=O)c2ccccc2C1=O)B(O)O [Example 23]	< 10 nM	< 200 nM
CC(=O)NCCCCCC(=O)N[C@@H](CCCNC(=N)N[N+](=O)[O-])C(=O)N[C@@H](CC(C)C)B(O)O [Example 24, Boronic acid, [(1R)-1-[[(2S)-5-[[imino(nitroamino)methyl]amino]-2-[[6-(acetylamino)hexanoyl]amino]-1-oxopentyl]amino]-3-methylbutyl]]	< 10 nM	> 10000 nM
